From US9315453B2, “4-(3-benzyloxyphenylthio)-2-chloro-1-(3-nitropropyl)benzene crystal” (KYORIN PHARMACEUTICAL CO., LTD., priority 2012, dated 2016) come the findings set out here.

A short description of series [1]: Stability test of the crystals under accelerated and long-term storage conditions. The following applies: 6 months after the start of the test, crystals obtained in Example 1. It is filed as physicochemical. The procedure: The crystals of the compound 1 obtained in Example 1 were subjected to a stability test under accelerated conditions (40° C./75% RH) and long-term storage conditions (25° C./60% RH).

[2] abbreviates: accelerated conditions (40° C./75% RH).
Setting [3] is: long-term storage conditions (25° C./60% RH).

On to `O=[N+]([O-])CCCc1ccc(Sc2cccc(OCc3ccccc3)c2)cc1Cl` [compound 1, 4-(3-benzyloxyphenylthio)-2-chloro-1-(3-nitropropyl)benzene], for which the melting point is 46 to 47 °C. In series [1] (setting [2]), the “change in the appearance of the crystals” value is “No change in the appearance” and the “formation of decomposition products” value is on record as “no decomposition products were formed”. Besides, in series [1] (setting [3]), the “change in the appearance of the crystals” value is “No change in the appearance” and the “formation of decomposition products” value is recorded as “no decomposition products were formed”.
